Earlier results on 4 molecules are cited in US20080248136A1, “ACUTE AND CHRONIC HEARTBURN COMPOSITION AND METHOD” (IOMEDIX DEVELOPMENT INTERNATIONAL SRL, priority 2006, published 2008).

For data set [1] the following is noted: mice.
For data set [2] the following is noted: in vivo.
In data set [3] the test system is mitogen-activated protein kinase signaling. The conditions noted are these: signaling stimulated by H. Pylori.

For the molecule `C=C(C)[C@H]1CC=C(C)CC1` [limonene], where the note is “after 2 days of administration”, the “participants achieving complete relief of symptoms” value is listed as 20%. Besides, where the note is “daily or every other day administration, after 14 days”, the “severity of gastric and esophageal reflux disorder symptoms, as evaluated by subjects” value was “near complete relief of the symptoms”. The “lasting alleviation of symptoms of gastric and esophageal reflux disorders” value (in certain cases) is given as “alleviated permanently”. The antinociceptive activity result in data set [1] is given as “has antinociceptive activity”.

For `O=C([O-])[O-].[Ca+2]` [calcium carbonate], in data set [2], the “esophageal pH” value is “significantly increased” and the “gastric pH versus placebo” value was “remained at or below placebo levels”.

As to `C=C(C)[C@@H]1CC=C(C(=O)O)CC1` [perillic acid], the “effect on mitogen-activated protein kinase signaling” value in data set [3] is “inhibits”.

`[Mg+2].[OH-].[OH-]` [magnesium hydroxide]: in data set [2], the “esophageal pH” value was “significantly increased” and the “gastric pH versus placebo” value is recorded as “increased gastric pH above placebo levels”.
